The text below walks through data of US5955325A, “Method for producing sulfated lactosamine oligosaccharide” (Seikagaku Kogyo Kabushiki Kaisha, priority 1996, dated 1999).

“Also recorded” adds a separate entry of the source.

In data set [1] the test system is chondroitin 6-sulfotransferase. The data set can be described thus: Transfer reaction of sulfate group (35SO4) to lactosamine oligosaccharides by purified sulfotransferase. Type of data set: biochemical, chick. Conditions: for Incorporation of 35S: 0.025 μmol oligosaccharide acceptor, 25 pmol [35S]PAPS, 0.09 μg purified C6ST, 37° C., 60 minutes, pH 6.8; for Incorporation (transfer) of sulfate group into the oligosaccharide, in words: acceptor for chondroitin 6-sulfotransferase, Superdex 30 gel filtration, 35S radioactivity. The procedure:
Specifically, the transfer reaction of sulfate group (^35 SO4 was used as sulfate group in order to confirm sulfation) to various lactosamine oligosaccharides by using sulfotransferase was performed in accordance with the following method. A standard reaction mixture was a solution containing 2.5 μmol of imidazole-HCl (pH 6.8), 0.25 μmol of CaCl2, 0.1 μmol of dithiothreitol, 0.025 μmol of various lactosamine oligosaccharides, 25 pmol of [^35 S]PAPS (about 2.5×10^5 cpm), and 0.09 μg of purified chondroitin 6-sulfotransferase in a final volume of 50 μl. The reaction mixture was subjected to the reaction at 37° C. for 60 minutes in a reaction tube. The reaction was terminated by immersing the reaction tube in boiling water for 1 minute. After the termination of the reaction, lactosamine oligosaccharide (sulfated lactosamine oligosaccharide) to which ^35 SO4 had been transferred was separated from free ^35 SO4 and [^35 S]PAPS by means of gel filtration chromatography. A fraction (1 ml) was collected to measure the radioactivity.
The retention time of the sulfated lactosamine oligosaccharide was faster by 2 to 3 minutes than the retention time (indicated by arrows shown in FIG. 1) of the lactosamine oligosaccharide used (lactosamine oligosaccharide before sulfation (acceptor)). […] A peak of sulfated LN partially overlapped with those of free ^35 SO4 and [^35 S]PAPS. A radioactivity peak (indicated by a horizontal bar in FIG. 1A) of a product produced from LN was subjected to paper electrophoresis. As a result, the sulfated LN was separated from ^35 SO4 and [^35 S]PAPS. Therefore, incorporation of sulfate group (^35 SO4) into LN was calculated after the paper electrophoresis.
On the technique in general: SEC sorts molecules by how far they enter the pores of the column.

The subject of data set [2] is chondroitin 6-sulfotransferase (C6ST). The experiment in a line: Sulfotransferase activity measured with various glycosaminoglycan substrates and activators. Conditions: for Transfer of sulfate group to glycosaminoglycan substrate by C6ST, in words: 25 nmol glycosaminoglycan, [35S]PAPS, 37° C., 20 minutes. Type of data set: biochemical, chick. The procedure:
In the purification steps, the sulfotransferase activity was measured as follows. The reaction solution had the following composition.
The activity was measured for various glycosaminoglycans as the substrate, by using 25 nmol of glycosaminoglycans (as an amount of galactosamine for chondroitin sulfate and dermatan sulfate, or as an amount of glucosamine for heparan sulfate and keratan sulfate) in place of chondroitin.
The reaction solution was incubated at 37° C. for 20 minutes in a reaction tube, and then the reaction was terminated by immersing the reaction tube in boiling water for 1 minute. After the termination of the reaction, 0.1 μmol of chondroitin sulfate A (as an amount of glucuronic acid) was added as a carrier, and three volumes of ethanol containing 1.3% potassium acetate was added thereto to precipitate ^35 S-labeled polysaccharide. The mixture was centrifuged at 10,000× g for 10 minutes to obtain a precipitate which was then dissolved in 70 μl of water. An aliquot (50 μl) of the obtained solution was injected into a desalting column equilibrated with 0.1 M NH4 HCO3, and eluted fractions containing the ^35 S-labeled polysaccharide were collected. To an aliquot (200 μl) of an obtained collected fraction, 1 ml of a scintillation cocktail (Clearsol, produced by nacalai tesque) was added to measure ^35 S-radioactivity. Thus incorporation of ^35 S into the polysaccharide was measured.
An aliquot (400 μl) was dispensed from the residual solution, to which 800 μl of ethanol containing 1.3% potassium acetate was added, followed by mixing. The mixture was placed on ice for 30 minutes, followed by centrifugation at 10,000× g for 10 minutes to precipitate the ^35 S-labeled polysaccharide. The precipitate was dissolved in 25 μl of a buffer containing 0.1 mg/ml of BSA, 0.05 M Tris-acetate, pH 7.5, and 10 milliunits of chondroitinase ACII (originating from Arthrobacter aurescens, produced by Seikagaku Corporation) to perform a reaction at 37° C. for 2 hours. The solution after the reaction was spotted onto Whatman No. 1 filter paper together with 2-acetamido-2-deoxy-3-O-(β-D-gluco-4-enopyranosyluronic acid)-6-O-sulfo-D-galactose (ΔDi-6S) and 2-acetamido-2-deoxy-3-O-(β-D-gluco-4-enopyranosyluronic acid)-4-O-sulfo-D-galactose (ΔDi-4S) (each 0.1 μmol, each produced by Seikagaku Corporation), followed by development for 20 hours with 1-butanol/acetic acid/1 M ammonium hydroxide (2:3:1 (V/V/V)).
Positions of ΔDi-6S and ΔDi-4S were inspected by using an ultraviolet lamp respectively. Portions corresponding to them were excised from the filter paper respectively, and were then placed in a scintillator prepared by dissolving 5 g of diphenyloxazole and 0.25 g of dimethyl-1,4-bis(2-(5-phenyloxazole))benzene in 1 L of toluene to measure radioactivity. […] According to incorporation of ^35 S into ΔDi-6S and ΔDi-4S, activities of chondroitin 6-sulfotransferase and chondroitin 4-sulfotransferase were calculated respectively. The activity to catalyze transfer of 1 pmol sulfate group/minute was defined as 1 unit.

A short description of data set [3]: Specific activity of purified chondroitin 6-sulfotransferase (35S incorporation into ΔDi-6S and ΔDi-4S). Type of data set: biochemical. The settings on record: chondroitin substrate. On the procedure:
In the purification steps, the sulfotransferase activity was measured as follows. The reaction solution had the following composition. Namely, the reaction solution (50 μl) contained 2.5 μmol of imidazol-HCl, pH 6.8, 1.25 μg of protamine hydrochloride, 0.1 μmol of dithiothreitol,25 nmol (as an amount of glucuronic acid) of chondroitin (produced by Seikagaku Corporation), 50 pmol of [^35 S]PAPS (adenosine 3'-phosphate, 5'-phosphosulfate), and the enzyme.
The reaction solution was incubated at 37° C. for 20 minutes in a reaction tube, and then the reaction was terminated by immersing the reaction tube in boiling water for 1 minute. […] To an aliquot (200 μl) of an obtained collected fraction, 1 ml of a scintillation cocktail (Clearsol, produced by nacalai tesque) was added to measure ^35 S-radioactivity. Thus incorporation of ^35 S into the polysaccharide was measured. […]
Positions of ΔDi-6S and ΔDi-4S were inspected by using an ultraviolet lamp respectively. Portions corresponding to them were excised from the filter paper respectively, and were then placed in a scintillator prepared by dissolving 5 g of diphenyloxazole and 0.25 g of dimethyl-1,4-bis(2-(5-phenyloxazole))benzene in 1 L of toluene to measure radioactivity. […] According to incorporation of ^35 S into ΔDi-6S and ΔDi-4S, activities of chondroitin 6-sulfotransferase and chondroitin 4-sulfotransferase were calculated respectively. […]

On to `CC(=O)N[C@H]1[C@H](O[C@H]2[C@@H](O)[C@@H](CO)O[C@@H](O[C@H]3[C@H](O)[C@@H](NC(C)=O)C(O)O[C@@H]3CO)[C@@H]2O)O[C@H](CO)[C@@H](O[C@@H]2O[C@H](CO)[C@H](O)[C@H](O)[C@H]2O)[C@@H]1O` (stereo partly shown) [L1L1, Galβ1--4GlcNAcβ1--3Galβ1--4GlcNAc], for which, in data set [1], the “Incorporation of 35S” value worked out at 0.031 pmol/minute/μg protein and the “Incorporation (transfer) of sulfate group into the oligosaccharide, in words” value (“Incorporation (transfer)” for short) is “observed”.
`CC(=O)N[C@H]1[C@H](O[C@H]2[C@@H](O)[C@@H](COS(=O)(=O)O)O[C@@H](O[C@H]3[C@H](O)[C@@H](NC(C)=O)C(O)O[C@@H]3COS(=O)(=O)O)[C@@H]2O)O[C@H](COS(=O)(=O)O)[C@@H](O[C@@H]2O[C@H](CO)[C@H](O)[C@H](O)[C@H]2O)[C@@H]1O` (stereo partly drawn) [L2L4, Galβ1--4GlcNAc(6S)β1--3Gal(6S)β1--4GlcNAc(6S)]: in data set [1], the “Incorporation of 35S” value turned out to be 0.29 pmol/minute/μg protein and the “Incorporation (transfer)” value is “observed”.
With `CC(=O)N[C@H]1C(O)O[C@H](CO)[C@@H](O[C@@H]2O[C@H](CO)[C@H](O)[C@H](O)[C@H]2O)[C@@H]1O` (stereo partly shown) [LN, Galβ1--4GlcNAc], in data set [1], the “Incorporation of 35S” value was 0.012 pmol/minute/μg protein and the “Incorporation (transfer)” value is given as “observed”.
As for `[Cl][Mn][Cl]` [MnCl2], in data set [2], the “Effect on the activity of C6ST” value is listed as “increased”.
Regarding `CC(=O)NC1C(O)OC(CO)C(OC2OC(CO)C(O)C(OC3OC(CO)C(OC4OC(CO)C(O)C(OC5(C(=O)O)CC(O)C(NC(C)=O)C(C(O)C(O)CO)O5)C4O)C(O)C3NC(C)=O)C2O)C1O` (stereo not shown) [SL1L1, NeuAcα2--3Galβ1--4GlcNAcβ1--3Galβ1--4GlcNAc], in data set [1], the “Incorporation of 35S” value is 0.034 pmol/minute/μg protein and the “Incorporation (transfer)” value is given as “observed”.
The matching figures for `CC(=O)NC1C(O)OC(COS(=O)(=O)O)C(OC2OC(COS(=O)(=O)O)C(O)C(OC3OC(COS(=O)(=O)O)C(OC4OC(CO)C(O)C(OC5(C(=O)O)CC(O)C(NC(C)=O)C(C(O)C(O)CO)O5)C4O)C(O)C3NC(C)=O)C2O)C1O` [SL2L4, NeuAcα2--3Galβ1--4GlcNAc(6S)β1--3Gal(6S)β1--4GlcNAc(6S)]: 0.48 pmol/minute/μg protein and “observed”.
The matching figures for `CC(=O)NC1C(O)OC(CO)C(OC2OC(CO)C(O)C(OC3(C(=O)O)CC(O)C(NC(C)=O)C(C(O)C(O)CO)O3)C2O)C1O` (stereo not shown) [SLN, NeuAcα2--3Galβ1--4GlcNAc]: 0.022 pmol/minute/μg protein and “observed”.
With `CC(=O)NC1C(O)CC(OC2C(O)C(CO)OC(OC3C(CO)OC(O)C(NC(C)=O)C3OC3OC(C)C(O)C(O)C3O)C2O)(C(=O)O)OC1C(O)C(O)CO` (stereo not shown) [SLe^x, NeuAcα2--3Galβ1--4(Fucα1-3)GlcNAc], the “Incorporation (transfer)” value in data set [1] is “no radioactivity was detected; also recorded: not detected”.
On to chondroitin, for which the “Transfer of sulfate group to glycosaminoglycan substrate by C6ST, in words” value in data set [2] was “transfers the sulfate group”.
On the same count and under the same terms, for chondroitin sulfate the value was “transfers the sulfate group”; for chondroitin sulfate A, “transfers the sulfate group”; for chondroitin sulfate C, “transfers the sulfate group”.
On the same count and under the same terms, in the case of chondroitin sulfate E it was “only scarcely transferred”; in that of dermatan sulfate, “only scarcely transferred”; in that of heparan sulfate, “only scarcely transferred”.
On the same count and under the same terms, for keratan sulfate the value was “transfers the sulfate group”.
With protamine, the “Effect on the activity of C6ST” value in data set [2] is “increased”.

B1: chondroitin 6-sulfotransferase: sulfotransferase purified from serum-free culture medium of chick chondrocyte (protein, UniProt Q92179 1-458, looked up)
Carbohydrate sulfotransferase …: MERRSALPQDFREVLHCLKMRSKYAVLLVFVVGLVIIEKENNFISRVSDKLKQSPQVLPEANETEASPVQAENGSLASLRQLDTAFSQLRTRLRNVTLQLAGELGIAAPEPRRHVLLMATTRTGSSFVGEFFNQQGNIFYLFEPLWHIERTVTFEPGGANAVGSALVYRDVLQQLLLCDLYILESFISPAPEEHLTAALFRRGSSHSLCEEPVCTPSLKKVFEKYHCKNRRCGPLNITLAAEACRRKQHMALKTVRIRQLEFLQPLAEDPRLDLRIIQLVRDPRAVLVSRMVAFSGKYESWKKWAAEGEAPLQEDEVQRLRGNCESIRLSAELGLRQPRWLRGRYMLVRYEDVARAPLRKALEMYRFAGIHPTPQVEEWIRANTQAPQDSNGIYSTQKNSSEQFEKWRFSIPFKLAQVVQDACEPAMRLFGYKLASSAQELTNRSLSLLEEGPPTRIT
For the molecule B1, the “Specific activity of chondroitin 6-sulfotransferase” value in data set [3] (1 unit = transfer of 1 pmol sulfate group/minute) is listed as 4.3×10^5 units/mg. In addition, in data set [3] (purified enzyme), the “Ratio of activities of chondroitin 4-sulfotransferase/chondroitin 6-sulfotransferase” value amounted to 0.02.
